Data published in patent US20050226943A1, “Extract of sophora flavescens flavonoids and uses thereof” (priority 2004, published 2005).

Legend:
IL1-β = experiment: Inhibition of LPS-induced IL1-β in normal human PBMC (ELISA); assay type: cell-based; conditions: for IL-1β: LPS-stimulated PBMC supernatant; for IL-1βInhibition Ratio (%): LPS-stimulated PBMC
Source text: (§1) Materials: • 1) Cell: PBMC (Peripheral Blood […]) • 2) Drugs: Sophora flavescens flavonoids extract and Kurarinone (Exp. 1) • 3) Positive control: Dexamethason (DEX) • 4) Reagents: Ficoll-Paque Plus (Amersham Bioscience), LPS and dexamethason (CalBiochem.), TNFa ELISA (Enzyme Linked Immunosorbent Assay) Kit and IL1-β ELISA Kit (Jingmei Bioengineer Technology), DMSO (Dimethylsulfoxide) (Sigma)
(§2) a. PBMC cells are isolated from fresh blood by using of Ficoll-Paque Plus reagent according to the protocol that the manufacturer recommends. Cells are suspended in RPMI 1640 media containing 10% FBS. 100 μl of 1×10^5 cells/ml is seeded in each well of 96 well plate, 1×10^4 cells total in each well and three wells for each reaction.
(§3) b. Samples are added into cells (final concentrations are 10, 30, 100 ug/ml, respectively. Sample volume that is added into each well is 10 μl). Final concentration of the positive control, dexamethason is 10 μM. 10 μl of media is added into the cells as a negative control. Then the plate is incubated in 37° C., 5% CO2 incubator for 15 minutes, 10 μl of 100 μg/ml LPS was added to each well except for negative controls. Incubate in 37° C., 5% CO2 incubator overnight.
(§4) c. Spin the plate at 1000 rpm for 15 minutes, transfer supernatant from each well to a new plate, measure the concentrations of TNFα and IL1-β by using assay kits. [formula]

TNFα = experiment: Inhibition of LPS-induced TNFα in normal human PBMC (ELISA); assay type: cell-based; conditions: for TNFa: LPS-stimulated PBMC supernatant; for TNFa Inhibition Ratio (%): LPS-stimulated PBMC
Source text: as §1, §2, §3, §4

SMILES | IL-1β (IL1-β; positive control 10 uM) [pg/mL] | IL-1βInhibition Ratio (%) (IL1-β; positive control 10 uM) | TNFa (TNFα; positive control 10 uM) [pg/mL] | TNFa Inhibition Ratio (%) (TNFα; positive control 10 uM) | IL-1β (IL1-β; sample 10 μg/ml) [pg/mL] | IL-1β (IL1-β; sample 30 μg/ml) [pg/mL] | IL-1β (IL1-β; sample 100 μg/ml) [pg/mL] | IL-1βInhibition Ratio (%) (IL1-β; sample 10 μg/ml) | IL-1βInhibition Ratio (%) (IL1-β; sample 30 μg/ml) | IL-1βInhibition Ratio (%) (IL1-β; sample 100 μg/ml) | TNFa (TNFα; sample 10 μg/ml) [pg/mL] | TNFa (TNFα; sample 30 μg/ml) [pg/mL] | TNFa (TNFα; sample 100 μg/ml) [pg/mL] | TNFa Inhibition Ratio (%) (TNFα; sample 10 μg/ml) | TNFa Inhibition Ratio (%) (TNFα; sample 30 μg/ml) | TNFa Inhibition Ratio (%) (TNFα; sample 100 μg/ml)
C[C@@H]1C[C@H]2[C@@H]3CCC4=CC(=O)C=C[C@]4(C)[C@@]3(F)[C@@H](O)C[C@]2(C)[C@@]1(O)C(=O)CO [DEX, Dexamethason, reference compound] | 275.6 ± 5.3 | 72.9 ± 1.6 | 120.9 ± 3.4 | 61.3 ± 1.9 | – | – | – | – | – | – | – | – | – | – | – | –
C=C(C)[C@H](CC=C(C)C)Cc1c(O)cc(OC)c2c1O[C@H](c1ccc(O)cc1O)CC2=O [Kurarinone, 4H-1-Benzopyran-4-one, 2-(2,4-dihydroxyphenyl)-2,3-dihydro-7-hydroxy-5-methoxy-8-[5-methyl-2-(1-methylethenyl)-4-hexenyl]-] | – | – | – | – | 129.8 ± 8.4 | 80.5 ± 3.7 | 3.1 ± 0.3 | 62.4 ± 4.2 | 75.0 ± 4.1 | 99.0 ± 0.5 | 92.2 ± 2.7 | 39.5 ± 1.5 | 2.1 ± 0.3 | 52.5 ± 4.2 | 78.5 ± 4.1 | 98.8 ± 2.1
